Results published in patent US20020009799A1, “Isolation and purification of nucleic acids” (priority 1999, published 2002).

Key:
E. coli cells = test: Lysis of suspended bacterial cells by lysis buffers with 0.1 to 1% SDS; format: cell-based; conditions: lysis buffer with 1% OT-100, 0.2M NaOH
Procedure: 0.25 grams of pelleted E. coli cells (the cells contained an 8.165 kB plasmid called VR1412) were suspended in the suspension buffer from a Concert Plasmid DNA Purification Kit (Life Technologies, Inc., Bethesda, Md.). In place of the lysis buffer provided in the Concert Plasmid DNA Purification Kit (i.e., 1% SDS in 200 mM NaOH), a series of ten different lysis buffers were evaluated. Each lysis buffer included 1% OT-100 (a hydrophobic surfactant), 0.2M NaOH and from 0.1 to 1% SDS. The lysis buffers were used to lyse the suspended bacterial cells, and the lysed suspension was then neutralized with the neutralization buffer provided in the Concert Plasmid DNA Purification Kit. The resulting plasmid DNA preparation was precipitated by the addition of isopropanol (IPA) followed by centrifugation.
The best result was obtained with 1% OT-100 and 0.4% SDS, that combined a relatively low endotoxin (LAL) level and a high plasmid concentration.

[1] = in water; cited from earlier work
[2] = bracketed value; cited from earlier work

CCCCCCCCCCCCOS(=O)(=O)[O-].[Na+] [SDS, Sodium dodecyl sulfate]
minimum concentration of SDS required to achieve most effective bacterial lysis (E. coli cells): 0.4%

CCCCCCCCCCCCCOC(=O)CC(C(=O)OCCCCCCCCCCCCC)S(=O)(=O)O.[Na] (stereo not drawn) [TR-70, sodium bistridecyl sulfosuccinate]
Solubility [1]: 0.15%

Triton ® X-100
Dynamic Surface Tension [6 bubbles/sec] [2]: — (42.2) dynes/cm
